Where two headings read alike, the source gives them in different places. Values belong to the compound of their own block, whether it stands above or below them.
How the values were obtained:
[1] = system: TE-1 esophageal cancer cells; assay: CTG cell proliferation IC50, TE-1; assay type: cell-based; conditions: TE-1 cells, read-out: Absolute IC50
Text: (§1) • 2). IC50 value: the concentration of inhibitor when 50% inhibitory effect was achieved; • 3). CAL-27 and RPMI 2650: head and neck cancer cell models; HepG2: hepatocellular cancer cells. CAL-27, RPMI 2650 and HepG2 cells were purchased from ATCC, where ATCC® No. was CRL-2095™, CCL-30™, HB-8065™, respectively. • 4). Both KYSE-150 and TE-1 were esophageal cancer cell models. The KYSE-150 cell line was purchased from DSMZ (German Collection of Microorganisms and Cell Cultures), and the DSMZ No. was ACC375; the TE-1 cell line was purchased from National Collection of Authenticated Cell Cultures, catalog number: TCHu89. • 5). RPMI 1640/F12 medium was a 1:1 mixture of RPMI 1640 medium and F12 medium. • 6). The percentages in 10% FBS in Table 1 and Table 2 were volume percentages. (2) Reagents • 1). FBS (fetal bovine serum) (purchased from ExCell, product number: FND500); • 2). MEM medium (purchased from Hyclone, product number: SH30024.01; • 3). DMEM medium (purchased from Gibco, product number: C11995500BT); • 4). MEM NEAA (purchased from Gibco, product number: 11140-050); • 5). RPMI1640 Culture medium (purchased from Gibco, product number: 11875-119); • 6). F12 Culture medium (purchased from Gibco, product number: 11765-054); (3) Test Article and Positive Control Article
(§2) 2. CTG Method was Used to Determine the Cell Proliferation IC50 of the Compound
(§3) • Step 1: Cells in exponential growth phase were harvested, and viable cells were counted with a Vi-Cell XR cytometer. The cell suspension was adjusted to an appropriate concentration with medium. 90 μL of cell suspension was added to each well of a 96-well cell culture plate, and the final cell concentration was 1500-6000 cells/well. • Step 2: The initial concentration of administration of compound I is 3 μM, and the initial concentration of administration of the control drug Alpelisib and Cisplatin was 10 μM, serially diluted 3-fold, a total of 9 concentration gradients and a DMSO control, the final concentration of DMSO in each well was 0.1%, placed in a 37° C., 5% CO2 incubator for 72 hours. • Step 3: After 72 hours of drug treatment, 50 μL (½ culture volume) CTG solution that was melted and equilibrated to room temperature was added to each well according to the CTG operation instructions. […] After 10 minutes, the fluorescence signal value was measured with an Envision2104 plate reader. […]
(§4) Cell survival rate was calculated using the formula: Vsample/Vvehicle control×100%. Where, Vsample was the reading of the drug treatment group, and Vvehicle control was the average value of the solvent control group. GraphPad Prism 5.0 software was used, and a S-type dosage-survival rate curve was drawn using a nonlinear regression model and IC50 value was calculated.

[2] = system: KYSE-150 esophageal cancer cells; assay: CTG cell proliferation IC50, KYSE-150; assay type: cell-based; conditions: KYSE-150 cells, read-out: Absolute IC50
Text: as §1, §2, §3, §4

[3] = system: RPMI2650 head and neck cancer cells; assay: CTG cell proliferation IC50, RPMI 2650; assay type: cell-based; conditions: 72 hours, read-out: Absolute IC50
Text: as §1, §2
(§5) • Step 1: Cells in exponential growth phase were harvested, and viable cells were counted with a Vi-Cell XR cytometer. The cell suspension was adjusted to an appropriate concentration with medium. […] After 10 minutes, the fluorescence signal value was measured with an Envision2104 plate reader. […]
as §4

[4] = system: CAL-27 head and neck cancer cells; assay: CTG cell proliferation IC50, CAL-27; assay type: cell-based; conditions: CAL-27 cells, 72 hours, read-out: Absolute IC50
Text: as §1, §2, §5, §4

[5] = system: human-derived colorectal cancer CO-04-0032 subcutaneous xenograft tumor; assay: In vivo efficacy, CO-04-0032 subcutaneous xenograft tumor model; parameters: species or system BALB/c nude mice; conditions: for Tumor volume (Day 28): mean ± SEM
Text: Experimental purpose: Study the in vivo efficacy of the test drug on human-derived colorectal cancer CO-04-0032 subcutaneous xenograft tumor model in nude mice.
Experimental design: • (1) Animals: BALB/c nude mice, female, 6 weeks old, weighing 16-18 grams. […] CO-04-0032 was a PDX model of human-derived colon cancer independently developed by WuXi AppTec New Drug Development Co., Ltd. See Table 5 below for the experimental grouping and dosing regimen.

[6] = 5 mg/kg, oral, once a day for 28 days
[7] = 20 mg/kg, vein, once a week, day 28

IC50 ([1]; Homo sapiens, TE-1, 72 h): > 2000 nM | IC50 ([1]; 72 hours): > 3000 nM | IC50 ([2]; Homo sapiens, KYSE-150, 72 h): > 2000 nM | IC50 ([2]; 72 hours): 2110 nM
Structure (SMILES): Cc1nc(NC(=O)N2CCC[C@H]2C(N)=O)sc1-c1ccnc(C(C)(C)C(F)(F)F)c1 [Alpelisib, reference compound]

Structure (SMILES): N.N.[Cl][Pt][Cl] [Cisplatin, reference compound]
IC50 [3]: 4250 nM | IC50 [4]: 4370 nM

Structure (SMILES): CO[C@H]1C[C@@H]2CC[C@@H](C)[C@@](O)(O2)C(=O)C(=O)N2CCCC[C@H]2C(=O)O[C@H]([C@H](C)C[C@@H]2CC[C@@H](OCCO)[C@H](OC)C2)CC(=O)[C@H](C)/C=C(\C)[C@@H](O)[C@@H](OC)C(=O)[C@H](C)C[C@H](C)/C=C/C=C/C=C/1C [Everolimus, reference compound]
T/C [5, 6]: 42% | TGI [5, 6]: 60% | Tumor volume (Day 28) [5, 6]: 739 ± 206 mm^3

Structure (SMILES): CN(C)C1CCN(C(=O)c2ccc(NC(=O)Nc3ccc(-c4nc(N5CCOCC5)nc(N5CCOCC5)n4)cc3)cc2)CC1 [PF05212384, reference compound]
T/C [5, 7]: 68% | TGI [5, 7]: 44% | Tumor volume (Day 28) [5, 7]: 971 ± 249 mm^3

From patent publication US12661357B2, “Use of pyrido[1,2-a]pyrimidone analogue” (GUANGZHOU JOYO PHARMATECH CO., LTD, priority 2021, dated 2026)
